Experimental data reported in patent EP4527828A1, “BIPHENYL COMPOUND, PHARMACEUTICAL COMPOSITION, METHOD FOR PREPARING SAME, AND USE THEREOF” (Longivitron (Suzhou) Biotechnology Co., Ltd, priority 2022, dated 2023).

What was measured:
LAG3/MHCII = biological target: T1, LAG3/MHCII (Homo sapiens, UniProt P18627); assay: HTRF binding inhibition of LAG3 and its ligand MHCII; details: for inhibition at 10 µM: compound at 10 µM, read-out: Inhibition rate; for IC50: binding inhibition LAG3/MHCII
T1 sequence (P18627 23-450 limits assumed): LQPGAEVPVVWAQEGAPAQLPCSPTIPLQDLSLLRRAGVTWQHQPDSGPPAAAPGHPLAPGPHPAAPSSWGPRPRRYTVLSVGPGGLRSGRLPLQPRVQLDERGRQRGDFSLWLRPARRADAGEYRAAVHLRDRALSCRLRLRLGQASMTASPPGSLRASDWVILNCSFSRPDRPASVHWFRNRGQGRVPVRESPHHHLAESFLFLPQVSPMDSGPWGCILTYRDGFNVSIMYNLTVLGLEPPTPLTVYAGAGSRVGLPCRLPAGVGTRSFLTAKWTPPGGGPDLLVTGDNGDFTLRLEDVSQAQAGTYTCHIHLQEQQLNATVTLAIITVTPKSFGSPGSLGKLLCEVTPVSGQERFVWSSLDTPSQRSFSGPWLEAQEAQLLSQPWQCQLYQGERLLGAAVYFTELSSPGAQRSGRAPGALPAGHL
Procedure: HTRF (Homogeneous time-resolved fluorescence) is based on two techniques, fluorescence resonance energy transfer (FRET) and time-resolved fluorescence (TRF). The detection was carried out using a 384-well plate. 2 µL of a compound to be tested with an appropriate concentration was collected, 4 µL of Tag1-LAG3 protein (with a final concentration of 10 nmol·L^-1) was added, 4 µL of Tag2-MHCII (with a final concentration of 20 nmol·L^-1) was added, and the plate was incubated at room temperature for 15 min. 10 µL of Anti-Tag1-Tb working solution (prepared by adding 25 µL of Anti-Tag1-Tab mother solution to 2475 µL of dilution buffer) was added, 10 µL of Anti-Tag2-XL665 working solution (prepared by adding 25 µL of Tag2-XL665 mother solution to 2475 µL of dilution buffer) was added, and the plate was sealed with a film and incubated at room temperature for 1 h. The detection was carried out using a Perkin Elma Envision instrument.

Human LAG3 protein = biological target: T2, Human LAG3 protein (Homo sapiens, UniProt P18627); assay: SPR interaction assay, CM5 chip amino coupling, human LAG3; format: binding
T2 sequence (P18627 23-525): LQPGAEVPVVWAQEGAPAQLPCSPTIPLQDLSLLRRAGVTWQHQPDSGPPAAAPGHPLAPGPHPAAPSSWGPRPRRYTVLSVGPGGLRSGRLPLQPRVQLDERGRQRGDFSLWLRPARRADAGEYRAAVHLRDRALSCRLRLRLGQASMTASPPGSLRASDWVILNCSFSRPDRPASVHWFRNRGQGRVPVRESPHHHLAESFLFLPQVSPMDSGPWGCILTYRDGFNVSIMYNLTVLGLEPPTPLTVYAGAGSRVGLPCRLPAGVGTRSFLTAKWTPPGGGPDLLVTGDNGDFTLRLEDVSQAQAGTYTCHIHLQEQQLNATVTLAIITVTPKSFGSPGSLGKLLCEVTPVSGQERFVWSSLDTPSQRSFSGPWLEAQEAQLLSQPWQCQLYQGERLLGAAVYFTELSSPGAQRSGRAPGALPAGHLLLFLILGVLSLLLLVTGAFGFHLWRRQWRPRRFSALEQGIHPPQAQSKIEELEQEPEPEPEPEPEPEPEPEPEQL
Description: (§1) A surface plasmon is an electromagnetic wave on a metal surface and is generated by the interaction of photons and electrons which are freely vibrated. Surface plasmon resonance (SPR) is an optical phenomenon that occurs on the surfaces of two media, and such a phenomenon can be induced by photons or electrons. When light enters an optically thinner medium from an optically denser medium, the phenomenon of total reflection occurs, and an evanescent wave is generated and enters the optically thinner medium. When the totally reflected evanescent wave meets the plasmon wave on the metal surface, resonance may occur, the energy of the reflected light decreases, and a resonance peak occurs on the energy spectrum of the reflected light. Such a resonance is called surface plasmon resonance. The angle of incidence causing the surface plasmon resonance is called an SPR angle. An SPR biosensor provides a sensitive, non-labeled detection technique for monitoring intermolecular interactions in real time. The sensor detects the change in the SPR angle, and the SPR is related to the refractive index of the metal surface. When an analyte binds to the chip surface, the refractive index of the chip surface changes, thus causing the change in the SPR angle. This is the basic principle for the SPR biosensor to detect intermolecular interactions in real time. During the interaction analysis, the change in the SPR angle is recorded on the sensorgram in real time.
(§2) Through the information query, the theoretical isoelectric point of the LAG3 protein is about 9.82, and the amino coupling method was contemplated to immobilize the protein. Since the main ligands of the LAG3 protein are FGL1 and MHCII proteins, after the LAG3 protein was coupled, the FGL1 protein sampling method was used to verify the protein activity.
(§3) Protein coupling buffer solution: 1.05× PBS-P+; 1.02× PBS-P+
(§4) Interaction buffer solution: 1.0× PBS-P+, 5% DMSO; 1.0× PBS-P+, 2% DMSO
(§5) In this experiment, by using the CM5 chip amino coupling method, the human LAG3 protein was immobilized to the Fc2 or Fc3 channel, and the mouse LAG3 protein was immobilized to the Fc3 or Fc4 channel.
(§6) LAG3 protein coupling conditions were as follows: the concentration was about 25 µg/mL, the system was sodium acetate solution with a pH of 5.5, the chip activation time was 420 s, and the blocking time was 420 s.
(§7) LAG3 protein coupling conditions were as follows: the concentration was about 50 µg/mL, the system was sodium acetate solution with a pH of 4.5, the chip activation time was 420 s, and the blocking time was 420 s.

Mouse LAG3 protein = biological target: T3, Mouse LAG3 protein (Mus musculus, UniProt Q61790); assay: SPR interaction assay, CM5 chip amino coupling, mouse LAG3; format: binding
T3 sequence (Q61790 24-521): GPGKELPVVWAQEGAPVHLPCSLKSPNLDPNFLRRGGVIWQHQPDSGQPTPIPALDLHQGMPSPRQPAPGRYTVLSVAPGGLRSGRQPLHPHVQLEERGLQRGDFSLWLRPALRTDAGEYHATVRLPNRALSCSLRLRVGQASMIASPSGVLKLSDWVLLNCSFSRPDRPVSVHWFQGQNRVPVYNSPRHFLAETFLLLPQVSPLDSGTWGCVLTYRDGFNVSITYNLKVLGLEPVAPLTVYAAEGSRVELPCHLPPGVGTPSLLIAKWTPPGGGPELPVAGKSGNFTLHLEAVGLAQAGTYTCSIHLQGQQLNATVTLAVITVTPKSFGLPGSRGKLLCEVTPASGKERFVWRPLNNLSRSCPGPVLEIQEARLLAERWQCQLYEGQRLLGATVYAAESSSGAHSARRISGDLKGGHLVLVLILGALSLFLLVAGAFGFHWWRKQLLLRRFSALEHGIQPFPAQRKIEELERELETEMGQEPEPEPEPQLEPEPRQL
Description: as §1, §2, §3, §4, §5, §6, §7

Human FGL1 protein = biological target: T4, Human FGL1 protein (Homo sapiens, UniProt Q08830); assay: SPR interaction assay, human FGL1; format: binding; details: SPR
T4 sequence (Q08830 23-312): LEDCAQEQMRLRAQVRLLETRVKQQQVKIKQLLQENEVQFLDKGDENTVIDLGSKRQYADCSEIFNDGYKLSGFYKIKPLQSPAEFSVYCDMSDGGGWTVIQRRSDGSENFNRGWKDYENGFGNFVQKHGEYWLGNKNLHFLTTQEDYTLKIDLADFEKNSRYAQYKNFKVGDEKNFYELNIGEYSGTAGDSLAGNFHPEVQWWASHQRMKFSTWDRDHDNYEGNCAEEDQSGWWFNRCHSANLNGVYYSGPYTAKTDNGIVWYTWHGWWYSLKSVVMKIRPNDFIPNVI
Description: as §1, §3, §4

## COc1ccc2cc1-c1cc(ccc1OC)C(=O)CCCCCC2=O [Compound 1, 1^6,2^6-dimethoxy-1,2(1,3)-diphenylcyclononane-3,9-dione]
LAG3/MHCII
  inhibition at 10 µM: 25.7%

## O=C1CCCCCC(=O)c2ccc(O)c(c2)-c2cc1ccc2O [Compound 2, 1^6,2^6-dihydroxy-1,2(1,3)-diphenylcyclononane-3,9-dione]
LAG3/MHCII
  inhibition at 10 µM: 45.9%

## O=C1CCCCCC(=O)c2ccc(OC3CCCC3)c(c2)-c2cc1ccc2O [Compound 3]
LAG3/MHCII
  IC50: 24.2 µM

## CCCCCOc1ccc2cc1-c1cc(ccc1OCCCCC)C(=O)CCCCCC2=O [Compound 5]
LAG3/MHCII
  IC50: 33.2 µM

## CCCCCCCOc1ccc2cc1-c1cc(ccc1OCCCCCCC)C(=O)CCCCCC2=O [Compound 6]
LAG3/MHCII
  IC50: 25.7 µM

## COCCCCOc1ccc2cc1-c1cc(ccc1OCCCCOC)C(=O)CCCCCC2=O [Compound 7]
LAG3/MHCII
  IC50: 35.4 µM

## CCCCCCOc1ccc(C(=O)O)cc1-c1cc(C(=O)NCCCNC(=O)C(F)(F)F)ccc1OCCCCCC [Compound 9]
LAG3/MHCII
  IC50: 5.67 µM
Human LAG3 protein
  interaction with the human LAG3 protein: interacts with the human LAG3 protein
Human LAG3 protein; ligand Human LAG3 protein
  Rmax: 129.5 RU
Human LAG3 protein; ligand Human LAG3 protein, Compound 9 fitted in steady-state mode
  Kd: 324 µM
Human LAG3 protein; ligand Human LAG3 protein, bound or not bound
  Note: Bound
Mouse LAG3 protein
  interaction with the mouse LAG3 protein: does not interact with the mouse LAG3 protein
Mouse LAG3 protein; ligand Mouse LAG3 protein
  Rmax: 8.130 E+4 RU
Mouse LAG3 protein; ligand Mouse LAG3 protein, bound or not bound
  Note: Not bound
Human FGL1 protein
  interaction with the human FGL1 protein: does not interact with the human FGL1 protein
Human FGL1 protein; ligand FGL1 protein
  Rmax: 3.346 E+5 RU
Human FGL1 protein; ligand FGL1 protein, bound or not bound
  Note: Not bound

## CCCCCCOc1ccc(C(=O)O)cc1-c1cc(C(=O)NCCCCCNC(=O)C(F)(F)F)ccc1OCCCCCC [Compound 10]
LAG3/MHCII
  IC50: 9.91 µM

## CCCCCCOc1ccc(C(=O)O)cc1-c1cc(C(=O)NCCNC(=O)C(F)(F)F)ccc1OCCCCCC [Compound 11]
LAG3/MHCII
  IC50: 7.96 µM

## CCCCCCOc1ccc(C(=O)NCCCCN)cc1-c1cc(C(=O)OC)ccc1OCCCCCC [Compound 12]
LAG3/MHCII
  IC50: > 100 µM
